# Tested on: B6 LysM-GFP mice
# Assay: Intravital two-photon imaging of neutrophils in transplanted hearts
# Type: in vivo, mouse
# Conditions: heart transplantation, recipient mice 2.0 mg/kg body weight
# Method: Hearts harvested from wild-type C57BL/6 mice were transplanted into the right neck of syngeneic LysM-GFP hosts, as previously described. […] Intravital two-photon imaging was performed using a custom-built microscope running ImageWarp version 2.1 acquisition software (A&B Software). For time-lapse imaging of cell trafficking, we averaged 15 video-rate frames (0.5 s per slice) during the acquisition. Each plane represents an image of 220 × 240 μm in the x and y dimensions and twenty-one sequential planes were acquired in the z dimension (2.5-μm each). Each individual neutrophil was tracked from its first appearance in the imaging window and followed up to the time point at which it dislocated more than 20 μm from its starting position. Fifty microlitres PBS containing 15 μl 655-nm nontargeted Q-dots (Thermo Fisher Scientific) were injected prior to imaging to visualize coronary vessels and assess whether neutrophils were intravascular or extravascular. The number of extravascular neutrophils was divided by the sum of intravascular and extravascular neutrophils to calculate extravasation. Imaris (Bitplane) was used for multidimensional rendering and manual cell tracking.
smiles,measurement,value
CN1C(=O)C(Cc2c[nH]c3c(Cl)cccc23)NC1=S (stereo not shown) [Nec-1f],Density of neutrophils,highly significant decreases
same,Extravasation of neutrophils,highly significant reductions
same,Neutrophil rolling velocities,significant increases
same,Rate of neutrophil recruitment to the graft,did not alter

# — publication PMC8292346, “Dysfunction of the key ferroptosis-surveilling systems hypersensitizes mice to tubular necrosis during acute kidney injury” (Nature Communications, 2021)
